Results as given in patent publication US20140135326A1, “METHOD OF TREATMENT OF AGGRESSION” (Supernus Pharmaceuticals, Inc., priority 2012, published 2014).

How the values were obtained:
Assay type in all cases: in vivo, human
[1] = tested on: impulsive aggression in ADHD patients; assay: Phase IIb study, R-MOAS score change from baseline
Protocol: (§1) A Phase IIb study was conducted for the treatment of impulsive aggression in Attention Deficit and Hyperactivity Disorder (ADHD) patients with a pharmaceutical preparation of molindone. The study was a multi-center randomized, double-blind, placebo controlled clinical trial in children 6 to 12 diagnosed with ADHD and characterized by impulsive aggression that is not controlled by optimal stimulant and psychosocial treatment. It was a dose finding study with the primary objective of identifying an effective dose range in children of different weight or age groups. The children were divided into two […] (i.e., less than 30 kg and greater than or equal to 30 kg). The low, medium, and high doses for the under 30 kg group were 12 mg, 24 mg, and 36 mg, respectively. Similarly, the low, medium, and high doses for the 30 kg and over group were 18 mg, 36 mg, and 54 mg, respectively. Three doses of molindone were studied with the primary endpoints of (a) effect in reducing impulsive aggression (measured with change in the score of the Retrospective-Modified Overt Aggression Scale “R-MOAS” at the end of the study from the baseline), and (b) rate of remission of aggression, after at least three weeks of treatment. Secondary objectives included safety and tolerability of molindone as well as the effect on the Clinical Global Impression and the Oppositional […] Disorder subscale score of the SNAP-IV Questionnaire and other endpoints [e.g., SNAP, clinical labs, AEs, etc.]. Patients who completed the study were offered the opportunity to continue into an open-label phase of six months duration.

[2] = Phase IIb study, safety and tolerability; details: throughout the study, across all doses
Protocol: A Phase IIb study was conducted for the treatment of impulsive aggression in Attention Deficit and Hyperactivity Disorder (ADHD) patients with a pharmaceutical preparation of molindone. The study was a multi-center randomized, double-blind, placebo controlled clinical trial in children 6 to 12 diagnosed with ADHD and characterized by impulsive aggression that is not controlled by optimal stimulant and psychosocial treatment. It was a dose finding study with the primary objective of identifying an effective dose range in children of different weight or age groups. The children were divided into two […] (i.e., less than 30 kg and greater than or equal to 30 kg). The low, medium, and high doses for the under 30 kg group were 12 mg, 24 mg, and 36 mg, respectively. Similarly, the low, medium, and high doses for the 30 kg and over group were 18 mg, 36 mg, and 54 mg, respectively. Three doses of molindone were studied with the primary endpoints of (a) effect in reducing impulsive aggression (measured with change in the score of the Retrospective-Modified Overt Aggression Scale “R-MOAS” at the end of the study from the baseline), and (b) rate of remission of aggression, after at least three weeks of treatment. Secondary objectives included safety and tolerability of molindone as well as the effect on the Clinical Global Impression and the Oppositional […] […]

[3] = tested on: impulsive aggression in ADHD patients; assay: Phase IIb study, rate of remission of aggression (R-MOAS ≦ 10); details: for Remission Rate at End of Study (Visit 10): R-MOAS ≦ 10, LOCF
Protocol: as §1

For CCc1c(C)[nH]c2c1C(=O)C(CN1CCOCC1)CC2 (stereo not drawn) [molindone], which “efficacy across any of the measures” value ([1]; 30 kg or more, high dose (54 mg)) is on record?
Its value is “did not show efficacy”.

What about the “R-MOAS (LOCF) Change from Baseline, mean (SD)” value (“R-MOAS (LOCF) Change … (SD)” for short) ([1]; <30 kg, high dose (36 mg)) of the same compound?
The value was −16.4 (36.90).

What about the “R-MOAS (LOCF) End of treatment (visit 10), mean (SD)” value (shortened to “R-MOAS (LOCF) End … (SD)”) ([1]; <30 kg, high dose (36 mg)) of the same compound?
Its value is 32.2 (24.14).

And the “R-MOAS (LOCF) Change … (SD)” value ([1]; <30 kg, low dose (12 mg))?
Its value is −25.1 (23.00).

What about the “R-MOAS (LOCF) End … (SD)” value ([1]; <30 kg, low dose (12 mg)) of the same compound?
The value was 34.2 (27.29).

And the “R-MOAS (LOCF) Change … (SD)” value ([1]; <30 kg, medium dose (24 mg))?
Its value is −30.7 (31.22).

And the “R-MOAS (LOCF) End … (SD)” value ([1]; <30 kg, medium dose (24 mg))?
The value was 38.5 (36.70).

And the “statistical significance vs placebo on the R-MOAS endpoint” value ([1]; patients under 30 kg, the studied doses (12, 24, 36 mg))?
Its value is “did not show statistical significance”.

And the “R-MOAS (LOCF) Change … (SD)” value ([1]; ≧30 kg, high dose (54 mg))?
The value was −23.0 (27.55).

What about the “R-MOAS (LOCF) End … (SD)” value ([1]; ≧30 kg, high dose (54 mg)) of the same compound?
The value was 28.8 (40.60).

What about the “R-MOAS (LOCF) Change … (SD)” value ([1]; ≧30 kg, low dose (18 mg)) of the same compound?
Its value is −41.7(32.48).

What about the “R-MOAS (LOCF) End … (SD)” value ([1]; ≧30 kg, low dose (18 mg)) of the same compound?
The value was 9.8 (13.01).

What about the “R-MOAS (LOCF) Change … (SD)” value ([1]; ≧30 kg, medium dose (36 mg)) of the same compound?
The value was −40.9(34.84).

What about the “R-MOAS (LOCF) End … (SD)” value ([1]; ≧30 kg, medium dose (36 mg)) of the same compound?
The value was 13.5(15.71).

What about the tolerability [2] of the same compound?
The tolerability was “well tolerated”.

What about the “Remission, Treatment vs Placebo Odds Ratio” value ([3]; <30 kg, high dose (36 mg)) of the same compound?
Its value is 0.62.

And the “Remission, Treatment vs Placebo Odds Ratio” value ([3]; <30 kg, low dose (12 mg))?
Its value is 1.53.

What about the “Remission, Treatment vs Placebo Odds Ratio” value ([3]; <30 kg, medium dose (24 mg)) of the same compound?
The value was 1.36.

What about the “Remission Rate at End of Study (Visit 10)” value (shortened to “Remission Rate at End”) ([3]; <30 kg, high dose (36 mg)) of the same compound?
Its value is 3 (21.4) n(%).

And the “Remission Rate at End” value ([3]; <30 kg, low dose (12 mg))?
Its value is 4 (33.3) n(%).

What about the “Remission Rate at End” value ([3]; <30 kg, medium dose (24 mg)) of the same compound?
The value was 4 (26.7) n(%).

What about the “Remission Rate at End” value ([3]; ≧30 kg, high dose (54 mg)) of the same compound?
The value was 7 (41.2) n(%).

What about the “Remission Rate at End” value ([3]; ≧30 kg, low dose (18 mg)) of the same compound?
The value was 10 (66.7) n(%).

And the “Remission Rate at End” value ([3]; ≧30 kg, medium dose (36 mg))?
Its value is 8 (53.3) n(%).

And the “Remission, Treatment vs Placebo Odds Ratio” value ([3]; ≧30 kg, high dose (54 mg))?
The value was 4.07.

And the “Remission, Treatment vs Placebo Odds Ratio” value ([3]; ≧30 kg, low dose (18 mg))?
Its value is 12.08.

And the “Remission, Treatment vs Placebo Odds Ratio” value ([3]; ≧30 kg, medium dose (36 mg))?
The value was 7.07.
